# Source: US8722338B2, “Modulation of ABCG2-mediated urate transport to treat hyperuricemia and gout” (The Johns Hopkins University, priority 2009, dated 2014)
# “Also recorded” adds a separate entry of the source.
# Legend:
# endogenous ABCG2 = target: T1, endogenous ABCG2 (Sus scrofa, UniProt Q8MIB3); assay: Urate accumulation in native LLC-PK1 renal proximal tubule cells; assay type: cell-based, porcine; conditions: 5 μM FTC; 120 min; polarized LLC-PK1 cells; 500 μM cold urate and 25 μM hot urate
# T1 construct: endogenous in cells; host or cells: LLC-PK1 porcine renal epithelial cells
# T1 sequence (Q8MIB3 1-656): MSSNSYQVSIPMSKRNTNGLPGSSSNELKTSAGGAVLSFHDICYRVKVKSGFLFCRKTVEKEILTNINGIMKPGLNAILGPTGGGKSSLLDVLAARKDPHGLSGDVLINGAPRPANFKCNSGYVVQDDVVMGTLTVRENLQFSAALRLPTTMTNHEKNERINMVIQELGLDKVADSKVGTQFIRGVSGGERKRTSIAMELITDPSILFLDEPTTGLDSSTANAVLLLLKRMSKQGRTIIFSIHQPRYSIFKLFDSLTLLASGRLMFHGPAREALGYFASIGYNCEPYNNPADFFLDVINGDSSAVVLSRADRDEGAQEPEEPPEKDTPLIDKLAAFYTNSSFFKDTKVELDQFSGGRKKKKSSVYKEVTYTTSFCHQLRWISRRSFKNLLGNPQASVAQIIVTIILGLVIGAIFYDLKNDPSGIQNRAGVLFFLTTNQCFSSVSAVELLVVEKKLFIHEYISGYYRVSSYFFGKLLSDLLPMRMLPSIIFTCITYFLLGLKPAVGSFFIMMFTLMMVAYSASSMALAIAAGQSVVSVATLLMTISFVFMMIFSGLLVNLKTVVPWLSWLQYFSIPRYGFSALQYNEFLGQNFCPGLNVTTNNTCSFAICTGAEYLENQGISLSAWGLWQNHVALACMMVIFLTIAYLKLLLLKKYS
# Protocol: LLC-PK1 porcine renal epithelial cells were cultured in Dulbecco's Modified Eagle medium (DMEM) supplemented with 10% FBS. LLC-PK1 cells were seeded at a high density into a 6-well plate and accumulation experiments were performed after the cells polarized. The cells were incubated in DMEM containing 500 μM cold urate and 25 μM hot urate with or without 5 μM FTC (US Biologicals); the incubation lasted 120 min. The cells were then washed four times with ice-cold DMEM and lysed with 500 μL of 1M NaOH. The lysate was collected and placed in a scintillation tubule along with 5 mL scintillation fluid and counted.
# human ABCG2 = human ABCG2 (Homo sapiens, UniProt Q9UNQ0); conditions: 5 μM FTC; oocytes injected with ABCG2 WT mRNA; C-14 urate
# Chain of human ABCG2 (Q9UNQ0 whole entry): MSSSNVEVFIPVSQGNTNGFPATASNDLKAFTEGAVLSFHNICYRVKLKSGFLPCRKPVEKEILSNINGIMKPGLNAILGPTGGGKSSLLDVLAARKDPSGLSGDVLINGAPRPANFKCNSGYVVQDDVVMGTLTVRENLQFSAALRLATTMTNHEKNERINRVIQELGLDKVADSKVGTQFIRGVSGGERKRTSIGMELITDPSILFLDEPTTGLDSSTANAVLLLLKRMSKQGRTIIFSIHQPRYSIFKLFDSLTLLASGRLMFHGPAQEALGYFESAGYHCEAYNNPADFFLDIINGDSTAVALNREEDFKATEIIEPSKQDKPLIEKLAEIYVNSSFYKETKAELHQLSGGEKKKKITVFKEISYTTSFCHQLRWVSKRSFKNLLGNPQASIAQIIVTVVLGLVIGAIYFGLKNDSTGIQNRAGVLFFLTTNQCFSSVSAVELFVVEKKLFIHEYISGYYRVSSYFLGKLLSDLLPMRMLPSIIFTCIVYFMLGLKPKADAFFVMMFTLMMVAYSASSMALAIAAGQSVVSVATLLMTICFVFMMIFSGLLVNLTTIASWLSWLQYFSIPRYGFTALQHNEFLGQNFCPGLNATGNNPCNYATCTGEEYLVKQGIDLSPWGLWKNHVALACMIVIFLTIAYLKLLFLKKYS
# Protocol: Oocytes were removed from female pigmented Xenopus laevis (Xenopus 1 Inc.) and de-folliculated using collagenase A (Roche) in Ca^2+-free OR-2 ringer solution. Stage V-VI oocytes were selected and injected (Nanoinject II, Drummond Scientific) with 50 nL of either mRNA or H2O (as a control). All experiments were performed on the fourth day after injection. Oocytes after injection were cultured in a modified L-15 media (OR-3) and kept at 15-20° C. mRNA was prepared using the SP6 mMessage mMachine (Ambion Inc.) according to the manufactures protocol.
# Radiolabeled C-14 uric acid (American Radio-labeled Chemicals) was dissolved in a stock solution of 2 mM NaOH with a final urate concentration of 2 mM (either 2 mM hot-radio labeled urate or 1 mM hot and 1 mM cold urate). For oocyte transport experiments, the radio labeled C-14 urate was included at various concentrations in ND96 ringers solution (in mM: 96 NaCl, 2 KCl, 2 MgCl2, 5 Hepes, 1.8 CaCl2, pH 7.5, and 5 mM glucose for overnight incubation experiments).
# For accumulation studies, oocytes were incubated either for 1 or 2 h at room temperature in 50 μM C-14 urate or overnight in 500 μM C-14 urate at 15° C. After incubation the oocytes were washed in ice-cold ND96 solution 3-5 times to remove any superficial, residual C-14 urate from the oocytes. Oocytes were then pooled for scintillation counting. […]
smiles,measurement,setting,value
"COc1ccc2c3c([nH]c2c1)[C@H](C=C(C)C)N1C(=O)[C@@H]2CCCN2C(=O)[C@@H]1C3 [FTC, fumitremorgin C]",urate export / intracellular urate accumulation compared with non-treated control cells,endogenous ABCG2,inhibits urate export; also recorded: significantly higher intracellular urate accumulation
same,reduced urate accumulation in ABCG2-expressing oocytes in the presence of inhibitor,human ABCG2,absent
